Target: streptavidin (Streptomyces avidinii, UniProt P22629)
Assay: Competition of Cy-5 labelled biotin binding to streptavidin coated beads, mixed wells analysed by flow cytometry
Conditions: well 2, bead type B (purple fluor), buffer containing biotin added before Cy-5 labelled biotin; compared with well 1 (buffer only)
Procedure: Streptavidin coated bead type A (yellow fluor) and bead type B (purple fluor) were pipetted into two separate wells of a microtitre plate, such that well 1 contained bead A and well 2 contained bead B. Buffer was added to well 1 and buffer containing biotin was added to well 2. Following mixing arid incubation a solution of Cy-5 labelled biotin in buffer was added to both wells. Following further incubation the contents of well 1 and well 2 were combined and the mixture analysed by flow cytometry.

Chain of streptavidin (P22629 25-183, species assumed): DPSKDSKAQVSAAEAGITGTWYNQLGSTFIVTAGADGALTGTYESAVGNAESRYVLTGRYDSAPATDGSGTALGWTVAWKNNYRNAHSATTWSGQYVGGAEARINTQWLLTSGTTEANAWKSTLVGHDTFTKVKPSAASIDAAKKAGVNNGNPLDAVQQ

For `O=C(O)CCCC[C@@H]1SC[C@@H]2NC(=O)N[C@@H]21` [biotin], the “Cy-5 fluorescence associated with bead type (Cy-5-biotin binding to streptavidin on the bead surface)” value was “low Cy-5-biotin binding”.
